Key:
[1] = system: Rattus norvegicus; assay: Serum creatinine concentration measured after intraperitoneal administration of 1 mg/kg of compound to rats(vehicle 5.07+/-0.33); type: functional
[2] = system: Rattus norvegicus; assay: Serum creatinine concentration measured after intraperitoneal administration of 0.01 mg/kg of compound to rats(vehicle 3.92+/-0.23); type: functional
[3] = system: Rattus norvegicus; assay: Serum creatinine concentration measured after intraperitoneal administration of 0.1 mg/kg of compound to rats(vehicle 4.82+/-0.17); type: functional
[4] = system: Rattus norvegicus; assay: Effect on urinary excretion potassium and sodium after oral administration of 0.1 mg/kg to rats(potassium and sodium excretion in control rat is 0.180+/-0.017); type: functional, Urine
[5] = system: Rattus norvegicus; assay: Urea nitrogen concentration measured after intraperitoneal administration of 1 mg/kg of compound to rats(vehicle 195.8+/-14.4); type: functional
[6] = system: Rattus norvegicus; assay: Effect on urinary excretion potassium and sodium after oral administration of 0.4 mg/kg to rats(potassium and sodium excretion in control rat is 0.147+/-0.015); type: functional, Urine
[7] = system: Rattus norvegicus; assay: Ratio of urinary excretion value (urinary volume) in treated rats to that in control rats, at a peroral dose of 0.1 mg/Kg; type: functional, Urine
[8] = system: Rattus norvegicus; assay: Ratio of urinary excretion value (urinary volume) in treated rats to that in control rats, at a peroral dose of 0.4 mg/Kg; type: functional, Urine
[9] = system: Rattus norvegicus; assay: Ratio of urinary excretion value (urinary volume) in treated rats to that in control rats, at a peroral dose of 1.6 mg/Kg; type: functional, Urine
[10] = species: Rattus norvegicus; assay: Ratio of sodium ion/potassium ion concentration in treated rats to that in control rats, at a peroral dose of 0.1; type: functional
[11] = system: Rattus norvegicus; assay: Ratio of sodium ion/potassium ion concentration in treated rats to that in control rats, at a peroral dose of 0.4 mg/Kg; type: functional
[12] = system: Rattus norvegicus; assay: Ratio of sodium ion/potassium ion concentration in treated rats to that in control rats, at a peroral dose of 1.6 mg/Kg; type: functional
[13] = system: Rattus norvegicus; assay: Ratio of urinary excretion value (Na+ concentration) in treated rats to that in control rats, at a peroral dose of 0.1 mg/Kg; type: functional, Urine
[14] = system: Rattus norvegicus; assay: Ratio of urinary excretion value (Na+ concentration) in treated rats to that in control rats, at a peroral dose of 0.4 mg/Kg; type: functional, Urine
[15] = system: Rattus norvegicus; assay: Ratio of urinary excretion value (Na+ concentration) in treated rats to that in control rats, at a peroral dose of 1.6 mg/Kg; type: functional, Urine
[16] = system: Rattus norvegicus; assay: Percent inhibition of serum creatinine by the compound given as ratio of Cr value in treated to vehicle treated ones after intraperitoneal administration of 0.01 mg/kg of compound to rats(vehicle 3.92+/-0.23); type: functional; conditions: ip
[17] = system: Rattus norvegicus; assay: Effect on urinary excretion potassium and sodium after oral administration of 1.6 mg/kg to rats(potassium and sodium excretion in control rat is 0.169+/-0.012); type: functional, Urine
[18] = system: Rattus norvegicus; assay: Percent inhibition of serum creatinine by the compound given as ratio of Cr value in treated to vehicle treated ones after intraperitoneal administration of 0.1 mg/kg of compound to rats(vehicle 4.82+/-0.17); type: functional; conditions: ip
[19] = system: Rattus norvegicus; assay: Oral diuretic activity was measured after oral administration of 0.4 mg/kg to rats(control volume is 0.96+/-0.09); type: functional, Urine
[20] = system: Rattus norvegicus; assay: Urea nitrogen concentration measured after intraperitoneal administration of 0.1 mg/kg of compound to rats(vehicle 151.5+/-7.4); type: functional
[21] = system: Rattus norvegicus; assay: Oral diuretic activity was measured after oral administration of 1.6 mg/kg to rats(control volume is 0.97+/-0.05); type: functional, Urine
[22] = system: Rattus norvegicus; assay: Oral diuretic activity was measured after oral administration of 0.1 mg/kg to rats(control volume is 1.05+/-0.11); type: functional, Urine
[23] = system: Rattus norvegicus; assay: Urea nitrogen concentration measured after intraperitoneal administration of 0.01 mg/kg of compound to rats(vehicle 141.3+/-8.3); type: functional
[24] = system: Rattus norvegicus; assay: Percent inhibition of Urea nitrogen by the compound given as ratio of UN value in treated to vehicle treated ones after intraperitoneal administration of 1 mg/kg of compound to rats(vehicle 195.8+/-14.4); type: functional; conditions: Rattus norvegicus, ip
[25] = system: Rattus norvegicus; assay: Percent inhibition of Urea nitrogen by the compound given as ratio of UN value in treated to vehicle treated ones after intraperitoneal administration of 0.01 mg/kg of compound to rats(vehicle 141.3+/-8.3); type: functional; conditions: ip
[26] = system: Rattus norvegicus; assay: Percent inhibition of Urea nitrogen by the compound given as ratio of UN value in treated to vehicle treated ones after intraperitoneal administration of 0.1 mg/kg of compound to rats(vehicle 151.5+/-7.4); type: functional; conditions: ip
[27] = target: Adenosine A2 receptor (Rattus norvegicus, UniProt P29276+P30543)
[28] = species: Rattus norvegicus; assay: animal or person; conditions: ip, read-out: Inhibition, dose 1 mg/kg, route intraperitoneal

Cn1c(=O)c2nc(C34CC5CC(CC3C5)C4)[nH]c2n(C)c1=O
Cr [1]: 2.88 mg/dL
Cr [2]: 3.53 mg/dL
Cr [3]: 3.14 mg/dL
Na [4]: 0.163 m equiv 6hr-1 100g-1
UN [5]: 116.7 mg/dL
Na [6]: 0.257 m equiv 6hr-1 100g-1
T/C [7]: 0.82
T/C [8]: 1.66
T/C [9]: 2.34
Na+/K+ [10]: 0.97
Na+/K+ [11]: 1.54
Na+/K+ [12]: 1.67
T/C [13]: 0.91
T/C [14]: 1.74
T/C [15]: 2.36
inhibition in vivo at 0.01 mg/kg [16]: 10%
Na [17]: 0.398 m equiv 6hr-1 100g-1
inhibition in vivo at 0.1 mg/kg [18]: 35%
Urine volume [19]: 1.59 ml 6hr-1 100g-1
UN [20]: 97.3 mg/dL
Urine volume [21]: 2.27 ml 6hr-1 100g-1
Urine volume [22]: 0.86 ml 6hr-1 100g-1
UN [23]: 133.4 mg/dL
inhibition in vivo at 1 mg/kg [24]: 40%
inhibition in vivo at 0.01 mg/kg [25]: 6%
inhibition in vivo at 0.1 mg/kg [26]: 36%
Ki [27]: 1200 nM
inhibition in vivo at 1 mg/kg [28]: 43%

Reference: ChEMBL document CHEMBL1125524, “Adenosine A1 antagonists. 2. Structure-activity relationships on diuretic activities and protective effects against acute renal failure” (J Med Chem, 1992)
